Measurements from patent publication US20220287995A1, “COMPOSITIONS AND METHODS FOR INHIBITING BACTERIAL VIRULENCE AND FLIM-BASED DEVICE AND METHOD FOR ANTIBIOTIC SUSCEPTIBILITY TESTING” (THE REGENTS OF THE UNIVERSITY OF CALIFORNIA, priority 2019, published 2022).

Key:
P. aeruginosa [1] = test: Fluorescence lifetime imaging microscopy (FLIM) phasor g-values of P. aeruginosa; type: cell-based, Pseudomonas aeruginosa; settings: for enzyme-bound NADH pool: surface-attached P. aeruginosa treated with carbon source; for fluorescence lifetime g-value / change in FLIM g-value: surface-attached; for fluorescence lifetime g-value: modified minimal medium, single carbon source at 0.2%; for change in FLIM g-value: rich (PS:DB) medium, carbon source 0.2% added at 3 hours, harvested after 1 additional hour
Description: Fluorescence lifetime measurements were performed using a custom-built multiphoton microscope setup based on an Olympus FV1000 system and an Olympus IX81 microscope (Olympus, Waltham, Mass.) as described previously (68). The FLIM microscope uses an 80 MHz ultrafast Ti:Sapphire Mai Tai laser (Spectra-physics, Santa Clara, Calif.) set at 740 nm for mulitphoton excitation. The setup used a 690-nm SP dichroic-460/80 nm filter pair for separating emission and a PlanApo N Olympus oil immersion 60× (1.42 NA) objective (Olympus, Waltham, Mass.), which is capable of bacterial single-cell resolution imaging. An H7422P-40 photomultiplier tube module (Hamamatsu, Bridgewater, N.J.) and A320 FastFLIM Box (ISS, Champaign, Ill.) were used to measure fluorescence lifetime. Image acquisition was controlled by SimFCS software version 4 (64-bit) (Laboratory for Fluorescence Dynamics, Irvine, Calif.). Planktonic and surface-attached cells were isolated by modifying a protocol described previously (12, 50) (FIG. 11A).
Masks for bacterial cells were created through SimFCS using fluorescence intensity images and image intensity thresholding (FIG. 11B). Fluorescence lifetimes within the masked areas were transformed using
The microscope was calibrated before each session by setting the fluorescence lifetime obtained for 10 μM rhodamine 110 (Sigma, St. Louis, Mo.) to 4.0 ns. The laser power was set to 20% (<3 mW at back aperture of the microscope) using an acousto-optic modulator (AA Opto Electronic, Orsay, France). Sub-cellular fluorescence lifetimes (FIG. 1A) were collected using the 20× digital zoom mode at a rate of 1.7 sec/frame. All other P. aeruginosa measurements were performed using the 6× digital zoom mode using the same frame rate. For all measurements, 40 sequential frames were acquired to generate a single FLIM image.
P. aeruginosa strains were cultured overnight in PS:DB, diluted 1:100 into 35 mm glass-bottom dishes (MatTek Corporation, Ashland, Mass.) containing the same medium, and cultured for 4 to 6 hours (FIGS. 2E-F, 4A, 5A, and 8C). Alternatively, strains were cultured overnight in minimal medium A, diluted 1:100 into modified minimal media A with single carbon sources in culture tubes (FIGS. 6D-E and 7A-B, D) or glass-bottom dishes and cultured to an OD600 of 0.2 (FIG. 2E-F).
Planktonic cells were transferred to a new glass-bottom dish, immobilized using an agar pad, and imaged immediately (FIG. 11A). Agar pads were made using 1% Bacto agar (BD, Franklin Lakes, N.J.) and DB buffer (1, 2) or modified minimal medium A containing no carbon source for strains that were cultured in PS:DB or modified minimal medium, respectively, and were cut into 1.5×1.5 cm squares. Surface-attached cells were isolated by aspirating the supernatant from the dish, washing the dish to remove planktonic cells with DB buffer or modified minimal medium with no carbon source for strains cultured in PS:DB or modified minimal medium, respectively, and placing an agar pad on the dish surface, and were imaged immediately. Imaging was performed at room temperature.
For experiments involving FLIM measurements of the effects of antimycin A (FIG. 7D), P. aeruginosa were grown in culture tubes to saturation in modified minimal medium A containing 0.2% citrate, diluted 1:100 into the same medium in culture tubes, supplemented with 10 μM antimycin A (Sigma, St. Louis, Mo.) with 0.1% ethanol or with 0.1% ethanol, cultured to an OD600 of 0.2, and immediately measured for fluorescence lifetime. Fluorescence lifetimes for pyocyanin and pyoverdine (FIG. 7C) were measured using solutions of 6.2 mM pyocyanin (P0046, Sigma, St. Louis, Mo.) in DMSO and 5 mg/mL pyoverdine (P8124, Sigma, St. Louis, Mo.) in deionized water, respectively. For FIG. 6D, cells with fluorescence intensities below a value of 1.0, as reported by the SimFCS software, were excluded from the analysis. […]

P. aeruginosa [2] = test: Surface density measurement of P. aeruginosa from virulence assays; type: cell-based, Pseudomonas aeruginosa; settings: virulence assays after 6 hours of growth, carbon source 0.2%
Description: The density of P. aeruginosa cells on surface was measured as described previously (1) using amoebae cell viability phase contrast images that were acquired using a 10× or 20× objective. The IJ_Isodata algorithm (ImageJ 1.52q) was applied to phase contrast images to construct cell boundary masks. The cell density was computed by dividing the area covered by P. aeruginosa by the total area of the image.

Compound | enzyme-bound NADH pool (P. aeruginosa [1]) | fluorescence lifetime g-value (P. aeruginosa [1]) | change in FLIM g-value (P. aeruginosa [1]) | surface density of P. aeruginosa (P. aeruginosa [2])
O=C(O)CC(O)(CC(=O)O)C(=O)O [citrate] | decreased | increasing g-values | greatest increases | did not decrease the surface density
OCC(O)CO [glycerol] | relatively small impacts | increasing g-values | smallest changes | –
